Where two headings read alike, the source gives them in different places.
What was measured:
Format in all cases: in vivo
[1] = tested on: chickweed (common chickweed, Stellaria media); assay: Test C postemergence: chickweed
Excerpt: (§1) At the same time, plants selected from these crop and weed species and also barley (winter barley, Hordeum vulgare), canarygrass (Phalaris minor), chickweed (common chickweed, Stellaria media) windgrass (Apera spica-venti) and deadnettle (henbit deadnettle, Lamium amplexicaule) were planted in pots containing Redi-Earth® planting medium (Scotts Company, 14111 Scottslawn Road, Marysville, Ohio 43041) comprising spaghnum peat moss, vermiculite, wetting agent and starter nutrients and treated with postemergence applications of test chemicals formulated in the same manner. Plants ranged in height from 2 to 18 cm (1- to 4-leaf stage) for postemergence treatments.
(§2) Treated plants and controls were maintained in a greenhouse for 13 to 15 days, after which time all species were compared to controls and visually evaluated. Plant response ratings, summarized in Table C, are based on a scale of 0 to 100 where 0 is no effect and 100 is complete control. A dash (-) response means no test result.

[2] = tested on: barnyardgrass (Echinochloa crus-galli); assay: Test A pre-/postemergence: barnyardgrass; settings: Echinochloa crus-galli, 240 h; for pest or weed control at 125 g/ha: 125 g ai/ha; for pest or weed control at 500 g/ha: 500 g ai/ha
Procedure, shortened: (§3)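 Seeds were sown in loam/sand blend and sprayed preemergence (directed soil spray) and, simultaneously, postemergence at 2–10 cm, one- to two-leaf stage, using compounds in non-phytotoxic solvent with surfactant. After ~10 days in greenhouse, injury was rated visually versus untreated controls, 0 (no effect) to 100 (complete control).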

[3] = tested on: nutsedge, yellow (yellow nutsedge, Cyperus esculentus); assay: Test C pre-/postemergence: nutsedge, yellow
Excerpt: Seeds of plant species selected from blackgrass (Alopecurus myosuroides), bromegrass, downy (downy bromegrass, Bromus tectorum), foxtail, green (green foxtail, Setaria viridis), ryegrass, Italian (Italian ryegrass, Lolium multiflorum), winter wheat (Triticum aestivum), wild oat (Avena fatua), galium (catchweed bedstraw, Galium aparine), bermudagrass (Cynodon dactylon), surinam grass (Brachiaria decumbens), cocklebur (common cocklebur, Xanthium strumarium), corn (Zea mays), large crabgrass (Digitaria sanguinalis), woolly cupgrass (Eriochloa villosa), foxtail, giant (giant foxtail, Setaria faberii), goosegrass (Eleusine indica), johnsongrass (Sorghum halepense), kochia (Kochia scoparia), lambsquarters (Chenopodium album), morningglory (Ipomoea coccinea), nightshade (eastern black nightshade, Solanum ptycanthum), nutsedge, yellow (yellow nutsedge, Cyperus esculentus), pigweed (Amaranthus retroflexus), ragweed (common ragweed, Ambrosia elation), soybean (Glycine max), common (oilseed) sunflower (Helianthus annuus), Russian thistle (Salsola kali) and velvetleaf (Abutilon theophrasti) were planted into a blend of loam soil and sand and treated preemergence with test chemicals formulated in a non-phytotoxic solvent mixture which included a surfactant.
as §1, §2

[4] = tested on: ryegrass, Italian (Italian ryegrass, Lolium multiflorum); assay: Test C pre-/postemergence: ryegrass, Italian
Procedure, shortened: (§4)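 Visual injury scored 0–100 (100 = complete control) against untreated controls after 13–15 greenhouse days. Surfactant-containing solvent formulations applied either to soil after sowing (loam/sand) or over 1- to 4-leaf plants, 2–18 cm tall.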

[5] = tested on: galium (catchweed bedstraw, Galium aparine); assay: Test C pre-/postemergence: galium
Procedure, shortened: as §4

[6] = tested on: large crabgrass (Digitaria sanguinalis); assay: Test C pre-/postemergence: large crabgrass
Procedure, shortened: as §4

[7] = tested on: morningglory (Ipomoea spp.); assay: Test A pre-/postemergence: morningglory; settings: Ipomoea, 240 h; for pest or weed control at 125 g/ha: 125 g ai/ha; for pest or weed control at 500 g/ha: 500 g ai/ha
Procedure, shortened: as §3

[8] = tested on: velvetleaf (Abutilon theophrasti); assay: Test A pre-/postemergence: velvetleaf; settings: Abutilon theophrasti, 240 h; for pest or weed control at 125 g/ha: 125 g ai/ha; for pest or weed control at 500 g/ha: 500 g ai/ha
Procedure, shortened: as §3

wild oat (Avena fatua) = assay: Test C pre-/postemergence: wild oat
Procedure, shortened: as §4

[9] = tested on: crabgrass, large (large crabgrass, Digitaria sanguinalis); assay: Test A pre-/postemergence: crabgrass, large; settings: Digitaria sanguinalis, 240 h; for pest or weed control at 125 g/ha: 125 g ai/ha; for pest or weed control at 500 g/ha: 500 g ai/ha
Procedure, shortened: as §3

[10] = tested on: foxtail, giant (giant foxtail, Setaria faberii); assay: Test A pre-/postemergence: foxtail, giant; settings: Setaria faberi, 240 h; for pest or weed control at 125 g/ha: 125 g ai/ha; for pest or weed control at 500 g/ha: 500 g ai/ha
Procedure, shortened: as §3

[11] = Postemergence, 31 g ai/ha, scale 0 to 100 (0 no effect, 100 complete control)
[12] = Postemergence, 62 g ai/ha, scale 0 to 100 (0 no effect, 100 complete control)
[13] = Postemergence, 125 g ai/ha, scale 0 to 100, 0 no effect, 100 complete control
[14] = Postemergence, 250 g ai/ha, scale 0 to 100
[15] = Preemergence, 31 g ai/ha, scale of 0 to 100, 0 is no effect, 100 is complete control
[16] = Preemergence, 62 g ai/ha, scale of 0 to 100, 0 is no effect, 100 is complete control
[17] = Preemergence, 125 g ai/ha, scale 0 to 100, 0 no effect, 100 complete control
[18] = Preemergence, 250 g ai/ha, scale 0 to 100, 0 no effect, 100 complete control

FC(F)(F)COc1nn(-c2ccc(C(F)(F)F)cc2)nc1Cc1ccnc(C(F)(F)F)c1 [Compound 14, 4-[[5-(2,2,2-trifluoroethoxy)-2-[4-(trifluoromethyl)phenyl]-2H-1,2,3-triazol-4-yl]methyl]-2-(trifluoromethyl)pyridine]
Plant response rating, Chickweed ([1]; 31 g ai/ha, scale 0 to 100 (0 no effect, 100 complete control)): 60 | Plant response rating, Chickweed ([1]; 62 g ai/ha, scale 0 to 100 (0 no effect, 100 complete control)): 75 | Plant response rating, Chickweed ([1]; 125 g ai/ha, scale 0 to 100, 0 no effect, 100 complete control): 75 | Plant response rating, Chickweed ([1]; 250 g ai/ha, scale 0 to 100): 80 | pest or weed control at 125 g/ha ([2]; post-emergence, Postemergence, 0 to 100 scale, 0 is no effect, 100 is complete control, read-out: Barnyardgrass plant response rating): 80% | pest or weed control at 500 g/ha ([2]; post-emergence, Postemergence, visual rating on 0 to 100 scale (0 no effect, 100 complete control), approximately ten days, read-out: Barnyardgrass plant response rating): 90% | pest or weed control at 125 g/ha ([2]; pre-emergence, Preemergence, 0 to 100 scale (0 no effect, 100 complete control), read-out: Plant response rating, Barnyardgrass): 70% | pest or weed control at 500 g/ha ([2]; pre-emergence, Preemergence, 0 to 100 scale, 0 is no effect, 100 is complete control, read-out: Plant response rating, Barnyardgrass): 90% | Plant response rating, Nutsedge, Yellow [3, 11]: 0 | Plant response rating, Nutsedge, Yellow [3, 12]: 0 | Plant response rating, Nutsedge, Yellow [3, 13]: 0 | Plant response rating, Nutsedge, Yellow [3, 14]: 0 | Plant response rating, Nutsedge, Yellow [3, 15]: 0 | Plant response rating, Nutsedge, Yellow [3, 16]: 0 | Plant response rating, Nutsedge, Yellow [3, 17]: 0 | Plant response rating, Nutsedge, Yellow [3, 18]: 0 | Plant response rating, Ryegrass, Italian [4, 11]: 30 | Plant response rating, Ryegrass, Italian [4, 12]: 35 | Plant response rating, Ryegrass, Italian [4, 13]: 35 | Plant response rating, Ryegrass, Italian [4, 14]: 40 | Plant response rating, Ryegrass, Italian [4, 15]: 10 | Plant response rating, Ryegrass, Italian [4, 16]: 35 | Plant response rating, Ryegrass, Italian [4, 17]: 60 | Plant response rating, Ryegrass, Italian [4, 18]: 85 | Plant response rating, Galium [5, 11]: 60 | Plant response rating, Galium [5, 12]: 80 | Plant response rating, Galium [5, 13]: 80 | Plant response rating, Galium [5, 14]: 80 | Plant response rating, Galium [5, 15]: 20 | Plant response rating, Galium [5, 16]: 90 | Plant response rating, Galium [5, 17]: 100 | Plant response rating, Galium [5, 18]: 100 | Plant response rating, Crabgrass, Large [6, 11]: 10 | Plant response rating, Crabgrass, Large [6, 12]: 45 | Plant response rating, Crabgrass, Large [6, 13]: 45 | Plant response rating, Crabgrass, Large [6, 14]: 60 | Plant response rating, Crabgrass, Large [6, 15]: 95 | Plant response rating, Crabgrass, Large [6, 16]: 100 | Plant response rating, Crabgrass, Large [6, 17]: 100 | Plant response rating, Crabgrass, Large [6, 18]: 100 | pest or weed control at 125 g/ha ([7]; post-emergence, Postemergence, 0 to 100 scale, 0 is no effect, 100 is complete control, read-out: Morningglory plant response rating): 80% | pest or weed control at 500 g/ha ([7]; post-emergence, Postemergence, visual rating on 0 to 100 scale (0 no effect, 100 complete control), approximately ten days, read-out: Morningglory plant response rating): 100% | pest or weed control at 125 g/ha ([7]; pre-emergence, Preemergence, 0 to 100 scale (0 no effect, 100 complete control), read-out: Plant response rating, Morningglory): 60% | pest or weed control at 500 g/ha ([7]; pre-emergence, Preemergence, 0 to 100 scale, 0 is no effect, 100 is complete control, read-out: Plant response rating, Morningglory): 80% | pest or weed control at 125 g/ha ([8]; post-emergence, Postemergence, 0 to 100 scale, 0 is no effect, 100 is complete control, read-out: Velvetleaf plant response rating): 100% | pest or weed control at 500 g/ha ([8]; post-emergence, Postemergence, visual rating on 0 to 100 scale (0 no effect, 100 complete control), approximately ten days, read-out: Velvetleaf plant response rating): 100% | pest or weed control at 125 g/ha ([8]; pre-emergence, Preemergence, 0 to 100 scale (0 no effect, 100 complete control), read-out: Plant response rating, Velvetleaf): 70% | pest or weed control at 500 g/ha ([8]; pre-emergence, Preemergence, 0 to 100 scale, 0 is no effect, 100 is complete control, read-out: Plant response rating, Velvetleaf): 90% | Plant response rating, Oat, Wild (wild oat (Avena fatua); [11]): 25 | Plant response rating, Oat, Wild (wild oat (Avena fatua); [12]): 45 | Plant response rating, Oat, Wild (wild oat (Avena fatua); [13]): 50 | Plant response rating, Oat, Wild (wild oat (Avena fatua); [14]): 60 | Plant response rating, Oat, Wild (wild oat (Avena fatua); [15]): 20 | Plant response rating, Oat, Wild (wild oat (Avena fatua); [16]): 40 | Plant response rating, Oat, Wild (wild oat (Avena fatua); [17]): 70 | Plant response rating, Oat, Wild (wild oat (Avena fatua); [18]): 90 | pest or weed control at 125 g/ha ([9]; post-emergence, Postemergence, 0 to 100 scale, 0 is no effect, 100 is complete control, read-out: Crabgrass, Large plant response rating): 80% | pest or weed control at 500 g/ha ([9]; post-emergence, Postemergence, visual rating on 0 to 100 scale (0 no effect, 100 complete control), approximately ten days, read-out: Crabgrass, Large plant response rating): 90% | pest or weed control at 125 g/ha ([9]; pre-emergence, Preemergence, 0 to 100 scale (0 no effect, 100 complete control), read-out: Plant response rating, Crabgrass, Large): 90% | pest or weed control at 500 g/ha ([9]; pre-emergence, Preemergence, 0 to 100 scale, 0 is no effect, 100 is complete control, read-out: Plant response rating, Crabgrass, Large): 100% | pest or weed control at 125 g/ha ([10]; post-emergence, Postemergence, 0 to 100 scale, 0 is no effect, 100 is complete control, read-out: Foxtail, Giant plant response rating): 80% | pest or weed control at 500 g/ha ([10]; post-emergence, Postemergence, visual rating on 0 to 100 scale (0 no effect, 100 complete control), approximately ten days, read-out: Foxtail, Giant plant response rating): 90% | pest or weed control at 125 g/ha ([10]; pre-emergence, Preemergence, 0 to 100 scale (0 no effect, 100 complete control), read-out: Plant response rating, Foxtail, Giant): 100% | pest or weed control at 500 g/ha ([10]; pre-emergence, Preemergence, 0 to 100 scale, 0 is no effect, 100 is complete control, read-out: Plant response rating, Foxtail, Giant): 100%
